Measured values as given in patent US20120239131A1, “METHODS AND APPARATUS FOR TREATMENT OF ANEURYSMAL TISSUE” (Medtronic Vascular, Inc., priority 2011, published 2012).

Assays:
Format in all cases: in vivo, ApoE−/− mice
Cathepsin B = assay: Aortic mural gene expression, RT-PCR (TLDA); conditions: fold change over ApoE−/− control; aorta, 28 days Ang II infusion
Protocol: (§1) ApoE−/− mice used in this study were divided into different pretreatment groups: 1) Fluvastatin-MF; 2) Doxycycline-MD; 3) Irbesartan-MI; 4) Telmisartan-MT; 5) Control (water) and fed medicated chow or medicated drinking water 1 week prior to pump implantation. AngII (1000 ng·kg^−1 of body weight·min^−1) was infused subcutaneously via Alzet mini-osmotic pumps for 28 days. All mice were maintained on the medicated chow (MI & MT) or medicated drinking water (MF & MD) treatments which were delivered daily for a total of 28 days following pump implantation.
(§2) In order to determine the effect of the various treatments on the progressive enlargement of the experimental AAAs the mice were followed with high frequency trans-abdominal ultrasound. Maximum aortic diameter was measured and recorded prior to pump implantation and then at 3, 7, 14, 21, and 28 days. All mice were sacrificed 28 days after pump implantation. Aortae were harvested and subjected to either histological analysis (Elastic Masson trichome, MAC2, CD31 and TUNEL staining) and analysis of mural gene expression. Plasma drug concentrations of experimental compounds were quantified on the day of sacrifice using high performance liquid chromatography (HPLC).
(§3) Total RNA was extracted from homogenized aortas using the Qiazol lysis reagent and RNeasy Lipid Tissue Mini kit. DNAse treatment was included in the procedure. RNA concentration was determined utilizing the Quant iT RNA assay kit. Complimentary deoxyribonucleic acid (cDNA) was synthesized from 1 μg RNA using High reverse cDNA transcription kit. Briefly the reaction tubes containing RNA, reverse transcriptase, buffer, RNAse inhibitor, and nuclease free water were incubated at 25° C. for 10 minutes to allow annealing. Reverse transcription was performed at 37° C. for 120 min, followed by a 5 sec incubation at 85° C. to inactivate the reverse transcriptase enzyme. The cDNA samples were cooled at 4° C. and stored at −80° C. until further use.
(§4) Real time PCR was performed using a 384-well Taqman low density array (TLDA) card. Each sample specific PCR mix contained 50 ng of total RNA converted to cDNA. The PCR reaction for Taqman assays contained 50 μl Master Mix (Taqman Universal PCR Master Mix,) and 50 ul of cDNA and RNAase free water. Assays were performed to include appropriate controls (no template control). The RT-PCR protocol included an initial step of 50° C. (2 minutes) […], denaturation by a hot start at 95° C. for 10 min, followed by 40 cycles of a 2 step program (denaturation at 95° C. for 15 secs for primer annealing/extension at 60° C. for 1 min). Fluorescence data was collected at 60° C. Fluorescence was quantified with ABI PRISM 7900HT Sequence Detection System. To verify amplification of a specific target cDNA, data generated was analyzed using SDS 2.2.3 software (Sequence Detection System Software, Applied Biosystems). For all amplification plots, the baseline data were set with the automatic CT function available with SDS 2.2.3 calculating the optimal baseline range and threshold value by using the AutoCT algorithm. According to the manufacturer's instruction, a CT value of ≧39 corresponds to nonspecific amplification marking the limits of detection. For endogenous control GAPDH was normalized to B2M. For relative quantification (RQ), pooled ApoE−/− control was used as the calibrator (with expression equal to 1).

CXCR4 = assay: Aortic mural gene expression, RT-PCR (TLDA); conditions: fold change over ApoE−/− control; aorta, 28 days Ang II infusion
Protocol: as §1, §2, §3, §4

CCR5 = assay: Aortic mural gene expression, RT-PCR (TLDA); conditions: fold change over ApoE−/− control; aorta, 28 days Ang II infusion
Protocol: as §1, §2, §3, §4

Fibronectin -1 = assay: Aortic mural gene expression, RT-PCR (TLDA); conditions: fold change over ApoE−/− control; aorta, 28 days Ang II infusion
Protocol: as §1, §2, §3, §4

ITGB2 = assay: Aortic mural gene expression, RT-PCR (TLDA); conditions: fold change over ApoE−/− control; aorta, 28 days Ang II infusion
Protocol: as §1, §2, §3, §4

Runx3 = assay: Aortic mural gene expression, RT-PCR (TLDA); conditions: fold change over ApoE−/− control; aorta, 28 days Ang II infusion
Protocol: as §1, §2, §3, §4

Vav1 = assay: Aortic mural gene expression, RT-PCR (TLDA); conditions: fold change over ApoE−/− control; aorta, 28 days Ang II infusion
Protocol: as §1, §2, §3, §4

TNF-α = assay: Aortic mural gene expression, RT-PCR (TLDA); conditions: fold change over ApoE−/− control; aorta, 28 days Ang II infusion
Protocol: as §1, §2, §3, §4

IL-7 = assay: Aortic mural gene expression, RT-PCR (TLDA); conditions: fold change over ApoE−/− control; aorta, 28 days Ang II infusion
Protocol: as §1, §2, §3, §4

TIMP2 = assay: Aortic mural gene expression, RT-PCR (TLDA); conditions: fold change over ApoE−/− control; aorta, 28 days Ang II infusion
Protocol: as §1, §2, §3, §4

CCL2 = assay: Aortic mural gene expression, RT-PCR (TLDA); conditions: fold change over ApoE−/− control; aorta, 28 days Ang II infusion
Protocol: as §1, §2, §3, §4

CCR2 = assay: Aortic mural gene expression, RT-PCR (TLDA); conditions: fold change over ApoE−/− control; aorta, 28 days Ang II infusion
Protocol: as §1, §2, §3, §4

MMP-8 = assay: Aortic mural gene expression, RT-PCR (TLDA); conditions: fold change over ApoE−/− control; aorta, 28 days Ang II infusion
Protocol: as §1, §2, §3, §4

Rac2 = assay: Aortic mural gene expression, RT-PCR (TLDA); conditions: fold change over ApoE−/− control; aorta, 28 days Ang II infusion
Protocol: as §1, §2, §3, §4

HMOX 1 = assay: Aortic mural gene expression, RT-PCR (TLDA); conditions: fold change over ApoE−/− control; aorta, 28 days Ang II infusion
Protocol: as §1, §2, §3, §4

Tgfβ1 = assay: Aortic mural gene expression, RT-PCR (TLDA); conditions: fold change over ApoE−/− control; aorta, 28 days Ang II infusion
Protocol: as §1, §2, §3, §4

LOX = assay: Aortic mural gene expression, RT-PCR (TLDA); conditions: fold change over ApoE−/− control; aorta, 28 days Ang II infusion
Protocol: as §1, §2, §3, §4

MMP-12 = assay: Aortic mural gene expression, RT-PCR (TLDA); conditions: fold change over ApoE−/− control; aorta, 28 days Ang II infusion
Protocol: as §1, §2, §3, §4

Cathepsin S = assay: Aortic mural gene expression, RT-PCR (TLDA); conditions: fold change over ApoE−/− control; aorta, 28 days Ang II infusion
Protocol: as §1, §2, §3, §4

Osteopontin = assay: Aortic mural gene expression, RT-PCR (TLDA); conditions: fold change over ApoE−/− control; aorta, 28 days Ang II infusion
Protocol: as §1, §2, §3, §4

Cybb = assay: Aortic mural gene expression, RT-PCR (TLDA); conditions: fold change over ApoE−/− control; aorta, 28 days Ang II infusion
Protocol: as §1, §2, §3, §4

MAPK8 = assay: Aortic mural gene expression, RT-PCR (TLDA); conditions: fold change over ApoE−/− control; aorta, 28 days Ang II infusion
Protocol: as §1, §2, §3, §4

NFKb1 = assay: Aortic mural gene expression, RT-PCR (TLDA); conditions: fold change over ApoE−/− control; aorta, 28 days Ang II infusion
Protocol: Total RNA was extracted from homogenized aortas using the Qiazol lysis reagent and RNeasy Lipid Tissue Mini kit. DNAse treatment was included in the procedure. RNA concentration was determined utilizing the Quant iT RNA assay kit. Complimentary deoxyribonucleic acid (cDNA) was synthesized from 1 μg RNA using High reverse cDNA transcription kit. Briefly the reaction tubes containing RNA, reverse transcriptase, buffer, RNAse inhibitor, and nuclease free water were incubated at 25° C. for 10 minutes to allow annealing. […] The cDNA samples were cooled at 4° C. and stored at −80° C. until further use.
Real time PCR was performed using a 384-well Taqman low density array (TLDA) card. Each sample specific PCR mix contained 50 ng of total RNA converted to cDNA. The PCR reaction for Taqman assays contained 50 μl Master Mix (Taqman Universal PCR Master Mix,) and 50 ul of cDNA and RNAase free water. Assays were performed to include appropriate controls (no template control). The RT-PCR protocol included an initial step of 50° C. […] Fluorescence data was collected at 60° C. Fluorescence was quantified with ABI PRISM 7900HT Sequence Detection System. To verify amplification of a specific target cDNA, data generated was analyzed using SDS 2.2.3 software (Sequence Detection System Software, Applied Biosystems). […] For relative quantification (RQ), pooled ApoE−/− control was used as the calibrator (with expression equal to 1).

[1] = tested on: genes involved in the pathophysiology of AAA; assay: Drug inhibition effect on differentially expressed genes, overall; conditions: for Down-regulation of genes involved in the pathophysiology of AAA: ApoE−/− + Ang II AAA model, summary of Table 2; for Total Score: sum of heat map grades over 25 genes, ApoE−/− + Ang II group scored 55
Protocol: as §1, §2, §3, §4

SMILES	Cathepsin B expression (Cathepsin B)	CXCR4 expression (CXCR4)	CCR5 expression (CCR5)	Fibronectin -1 expression (Fibronectin -1)	ITGB2 expression (ITGB2)	Runx3 expression (Runx3)	Vav1 expression (Vav1)	TNF-α expression (TNF-α)	IL-7 expression (IL-7)	TIMP2 expression (TIMP2)	CCL2 expression (CCL2)	CCR2 expression (CCR2)	MMP-8 expression (MMP-8)	Rac2 expression (Rac2)	HMOX 1 expression (HMOX 1)	Tgfβ1 expression (Tgfβ1)	LOX expression (LOX)	MMP-12 expression (MMP-12)	Cathepsin S expression (Cathepsin S)	Osteopontin expression (Osteopontin)	other results
CC(C)n1c(/C=C/C(O)CC(O)CC(=O)O)c(-c2ccc(F)cc2)c2ccccc21 (centres unmarked) [Fluvastatin]	+ (1.1 to 1.5 = +)	+++ (3.1 to 10 = +++)	+++ (3.1 to 10 = +++)	− (0 to 1 = −)	++ (1.51 to 3 = ++)	++ (1.51 to 3 = ++)	++ (1.51 to 3 = ++)	++ (1.51 to 3 = ++)	− (0 to 1 = −)	− (0 to 1 = −)	++ (1.51 to 3 = ++)	+++ (3.1 to 10 = +++)	++++ (>10.1 = ++++)	+ (1.1 to 1.5 = +)	+++ (3.1 to 10 = +++)	+++ (3.1 to 10 = +++)	− (0 to 1 = −)	+++ (3.1 to 10 = +++)	+++ (3.1 to 10 = +++)	++++ (>10.1 = ++++)	Cybb expression (Cybb): ++ (1.51 to 3 = ++); MAPK8 expression (MAPK8): − (0 to 1 = −); NFKb1 expression (NFKb1): − (0 to 1 = −); Down-regulation of genes involved in the pathophysiology of AAA [1]: down-regulating the expression of genes; Total Score [1]: 45
CCCc1nc2c(C)cc(-c3nc4ccccc4n3C)cc2n1Cc1ccc(-c2ccccc2C(=O)O)cc1 [Telmisartan]	− (0 to 1 = −)	+++ (3.1 to 10 = +++)	− (0 to 1 = −)	− (0 to 1 = −)	− (0 to 1 = −)	− (0 to 1 = −)	− (0 to 1 = −)	− (0 to 1 = −)	+ (1.1 to 1.5 = +)	− (0 to 1 = −)	− (0 to 1 = −)	− (0 to 1 = −)	− (0 to 1 = −)	− (0 to 1 = −)	− (0 to 1 = −)	− (0 to 1 = −)	− (0 to 1 = −)	− (0 to 1 = −)	− (0 to 1 = −)	− (0 to 1 = −)	Cybb expression (Cybb): − (0 to 1 = −); MAPK8 expression (MAPK8): ++ (1.51 to 3 = ++); NFKb1 expression (NFKb1): − (0 to 1 = −); Down-regulation of genes involved in the pathophysiology of AAA [1]: down-regulating the expression of genes; Total Score [1]: 6
